Test results: patent publication US20260035364A1, “BICYCLIC TETRAHYDROTHIAZEPINE DERIVATIVES” (Hoffmann-La Roche Inc., priority 2022, published 2026)
pEC50: −log10 of the molar value.

Test system: primary human T-cells
Assay: IL2 secretion measurements in CD3-stimulated T-cells
Assay type: cell-based
Details: Homo sapiens, T-cell, 24 h, CD3 condition; for Emax: IL2 after 24 hours, 20 μM reference compound A1 = 100%, read-out: Emax IL2 (% activation); for pEC50: IL2 secretion after 24 hours, read-out: Tcell IL2 CD3 EC50
Method in brief: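 Expanded primary human T-cells (100k/well) were stimulated on CD3 antibody-coated or PBS-coated plates with compounds in 5–6 point dose response from 20 or 10 μM top final (dilution factor 3.333, 0.2% DMSO final). IL2 in 24 h supernatants was measured by ProQuantum immunoassay or ELISA, normalized to DMSO (0%) and 20 μM reference compound A1 (100%) to fit EC50 and Emax.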

| SMILES | pEC50 | Emax [%] |
| --- | --- | --- |
| CS(=O)(=O)C1(c2nnc(-c3ccc4c(c3)N(Cc3ccc(Oc5ccccc5)cc3)C(=O)[C@@H](N)CS4(=O)=O)o2)CC1 [Example 66, (3R)-3-amino-7-[5-(1-methylsulfonylcyclopropyl)-1,3,4-oxadiazol-2-yl]-1,1-dioxo-5-[(4-phenoxyphenyl)methyl]-2,3-dihydro-1λ6,5-benzothiazepin-4-one] | 5.04 | 52 |
| CS(=O)(=O)C1(c2nnc(-c3ccc4c(c3)N(Cc3ccc(Oc5ccccc5)cc3)C(=O)[C@@H](N)CS4(=O)=O)o2)CCC1 [Example 68, (3R)-3-amino-7-[5-(1-methylsulfonylcyclobutyl)-1,3,4-oxadiazol-2-yl]-1,1-dioxo-5-[(4-phenoxyphenyl)methyl]-2,3-dihydro-1λ6,5-benzothiazepin-4-one] | 5.66 | 41 |
| CC(C)(c1nnc(-c2ccc3c(c2)N(Cc2ccc(-c4ccc(OC(F)(F)F)cn4)cc2)C(=O)[C@@H](N)CS3(=O)=O)o1)S(C)(=O)=O [Example 69, (3R)-3-amino-1,1-diketo-7-[5-(1-mesyl-1-methyl-ethyl)-1,3,4-oxadiazol-2-yl]-5-[4-[5-(trifluoromethoxy)-2-pyridyl]benzyl]-2,3-dihydro-1λ6,5-benzothiazepin-4-one] | 6.30 | 97 |

The remaining molecules from weak to strong by pEC50, led by results:

| pEC50 | SMILES | Emax [%] |
| --- | --- | --- |
| 5.50 | CN(C)S(=O)(=O)C(C)(C)c1nnc(-c2ccc3c(c2)N(Cc2ccc(-c4ccc(C(F)(F)F)cc4)cc2)C(=O)[C@@H](N)CS3(=O)=O)o1 [Example 65, 2-[5-[(3R)-3-amino-1,1,4-trioxo-5-[[4-[4-(trifluoromethyl)phenyl]phenyl]methyl]-2,3-dihydro-1λ6,5-benzothiazepin-7-yl]-1,3,4-oxadiazol-2-yl]-N,N-dimethyl-propane-2-sulfonamide] | 85 |
| 5.75 | CC(C)(c1nnc(-c2ccc3c(c2)N(Cc2ccc(-c4ccc(C(F)(F)F)cc4)cc2)C(=O)[C@@H](N)CS3(=O)=O)o1)S(=O)(=O)N1CCCC1 [Example 67, (3R)-3-amino-7-[5-(1-methyl-1-pyrrolidin-1-ylsulfonyl-ethyl)-1,3,4-oxadiazol-2-yl]-1,1-dioxo-5-[[4-[4-(trifluoromethyl)phenyl]phenyl]methyl]-2,3-dihydro-1λ6,5-benzothiazepin-4-one] | 71 |
